Results published in patent US20260138992A1, “LUR[…] FORM AND METHOD FOR PREPARING SAME” (priority 2022, published 2026).
Read-outs that look alike come from different tables or passages of the source.

Assays:
[1] = during its manipulation; cited from earlier work
[2] = Applicant's experimental study of the stability of crystal Form A of CN114940682A; assay type: physicochemical
[3] = assay type: physicochemical; conditions: for chemical stability (assessment in words) / physical stability (assessment in words): 10 days under long-term and accelerated conditions; for product purity: after 10 days at 25° C./60% RH and 40° C./75% RH; for purity: sealed and stored at −20° C. for 120 days
[4] = Observation of electrostatic properties of the crystal forms (glass bottle storage, weighing); assay type: physicochemical; conditions: for electrostatic effect (sticking to scoop and weighing paper): during the weighing; for wall-hanging phenomenon: stored in a glass bottle
[5] = Stability test of crystal form I of lurbinectedin (XRPD and HPLC purity after storage); assay type: physicochemical
[6] = 10 days under long-term (25° C./60% RH) and accelerated (40° C./75% RH) conditions
[7] = Group 6, sealed and stored at −20° C. for 120 days
[8] = Group 2, kept in dark, sealed, 2-8° C. for 12 months
[9] = Group 3, kept in dark, sealed, −20° C. for 20 months
[10] = stored at −20° C. in the dark and sealed, and at 2-8° C. in the dark and sealed

Row | SMILES | XRPD crystal form [3, 6] | chemical stability (assessment in words) [3] | physical stability (assessment in words) [3] | HPLC purity ([3]; Group 1, 0 day) | HPLC purity ([3]; Group 2, 25° C./60% RH-5 days) | HPLC purity ([3]; Group 3, 25° C./60% RH-10 days) | HPLC purity ([3]; Group 4, 40° C./75% RH-5 days) | HPLC purity ([3]; Group 5, 40° C./75% RH-10 days) | HPLC purity [3, 7] | product purity [3] | purity [3] | XRPD crystal form ([3]; sealed, −20° C. for 120 days) | electrostatic effect (sticking to scoop and weighing paper) [4] | wall-hanging phenomenon [4] | other results
1 | COc1ccc2[nH]c3c(c2c1)CCN[C@]31CS[C@@H]2c3c(OC(C)=O)c(C)c4c(c3[C@H](COC1=O)N1[C@@H]2[C@H]2c3c(cc(C)c(OC)c3O)C[C@@H]([C@@H]1O)N2C)OCO4 [Form A, lurbinectedin] |  |  |  |  |  |  |  |  |  |  |  |  |  |  | static electricity [1]: has static electricity
2 | COc1ccc2[nH]c3c(c2c1)CCN[C@]31CS[C@@H]2c3c(OC(C)=O)c(C)c4c(c3[C@H](COC1=O)N1[C@@H]2[C@H]2c3c(cc(C)c(OC)c3O)C[C@@H]([C@@H]1O)N2C)OCO4 [crystal Form A, lurbinectedin] |  |  |  |  |  |  |  |  |  |  |  |  |  |  | stability of the crystal form ([2]; at room temperature, converts into other crystal forms readily): highly unstable; stability of the crystal form ([2]; at −20° C.): stable
3 | COc1ccc2[nH]c3c(c2c1)CCN[C@]31CS[C@@H]2c3c(OC(C)=O)c(C)c4c(c3[C@H](COC1=O)N1[C@@H]2[C@H]2c3c(cc(C)c(OC)c3O)C[C@@H]([C@@H]1O)N2C)OCO4 [crystal form B, lurbinectedin, reference compound] | remained unchanged | relatively poor | excellent | 99.62% | 99.44% | 99.05% | 99.13% | 99.24% | 99.60% | decreased | above 99% | remained unchanged | obvious electrostatic effect | exhibits wall-hanging phenomenon | XRPD crystal form ([3]; 10 days under long-term (25° C./60% RH) and accelerated (40° C./75% RH) conditions, listed as Crystal form B): unchanged for 10; XRPD crystal form ([3]; sealed, −20° C. for 120 days, listed as Crystal form B): unchanged
4 | COc1ccc2[nH]c3c(c2c1)CCN[C@]31CS[C@@H]2c3c(OC(C)=O)c(C)c4c(c3[C@H](COC1=O)N1[C@@H]2[C@H]2c3c(cc(C)c(OC)c3O)C[C@@H]([C@@H]1O)N2C)OCO4 [crystal form I, lurbinectedin] |  |  |  |  |  |  |  |  |  |  |  |  | do not show electrostatic effect or the effect is not obvious | no wall-hanging phenomenon or the phenomenon is not obvious | Crystal form of lurbinectedin (XRPD) ([5]; Group 1, initial moment): crystal form I; HPLC purity ([5]; Group 1, initial moment): 99.91%; Crystal form of lurbinectedin (XRPD) [5, 8]: crystal form I; HPLC purity [5, 8]: 99.68%; Crystal form of lurbinectedin (XRPD) [5, 9]: crystal form I; HPLC purity [5, 9]: 99.65%; time the crystal form remains stable ([5]; stored at 2-8° C. or −20° C.): at least 12 months; crystal form [5, 10]: remained unchanged; product purity [5, 10]: above 99%
5 | COc1ccc2[nH]c3c(c2c1)CCN[C@]31CS[C@@H]2c3c(OC(C)=O)c(C)c4c(c3[C@H](COC1=O)N1[C@@H]2[C@H]2c3c(cc(C)c(OC)c3O)C[C@@H]([C@@H]1O)N2C)OCO4 [crystal form II, lurbinectedin] | remained unchanged | excellent | excellent | 99.59% | 99.40% | 99.41% | 99.41% | 99.41% | 99.58% | above 99% | above 99% | remained unchanged | do not show electrostatic effect or the effect is not obvious | no wall-hanging phenomenon or the phenomenon is not obvious | XRPD crystal form ([3]; sealed, −20° C. for 120 days, listed as Crystal form II): unchanged
6 | COc1ccc2[nH]c3c(c2c1)CCN[C@]31CS[C@@H]2c3c(OC(C)=O)c(C)c4c(c3[C@H](COC1=O)N1[C@@H]2[C@H]2c3c(cc(C)c(OC)c3O)C[C@@H]([C@@H]1O)N2C)OCO4 [crystal form III, lurbinectedin] | remained unchanged | excellent | excellent | 99.61% | 99.48% | 99.42% | 99.48% | 99.37% | 99.60% | above 99% | above 99% | remained unchanged | do not show electrostatic effect or the effect is not obvious | no wall-hanging phenomenon or the phenomenon is not obvious | XRPD crystal form ([3]; sealed, −20° C. for 120 days, listed as Crystal form III): unchanged
7 | COc1ccc2[nH]c3c(c2c1)CCN[C@]31CS[C@@H]2c3c(OC(C)=O)c(C)c4c(c3[C@H](COC1=O)N1[C@@H]2[C@H]2c3c(cc(C)c(OC)c3O)C[C@@H]([C@@H]1O)N2C)OCO4 [crystal form IV, lurbinectedin] | remained unchanged | excellent | excellent | 99.90% | 99.86% | 99.74% | 99.79% | 99.78% | 99.91% | above 99% | above 99% | remained unchanged | do not show electrostatic effect or the effect is not obvious | no wall-hanging phenomenon or the phenomenon is not obvious | XRPD crystal form ([3]; sealed, −20° C. for 120 days, listed as Crystal form IV): unchanged
8 | COc1ccc2[nH]c3c(c2c1)CCN[C@]31CS[C@@H]2c3c(OC(C)=O)c(C)c4c(c3[C@H](COC1=O)N1[C@@H]2[C@H]2c3c(cc(C)c(OC)c3O)C[C@@H]([C@@H]1O)N2C)OCO4 [crystal form V, lurbinectedin] |  |  |  |  |  |  |  |  |  |  |  |  | do not show electrostatic effect or the effect is not obvious | no wall-hanging phenomenon or the phenomenon is not obvious | 
